US6613762B2, “Gambogic acid, analogs and derivatives as activators of caspases and inducers of apoptosis” (Cytovia, Inc., priority 1999, dated 2003)
Where two headings read alike, the source gives them in different places.

What was measured:
[1] = tested on: poly(ADP)ribose polymerase (PARP) cleavage, PC3 cells; assay: PARP cleavage western blot, PC3 cells; type: cell-based, human; conditions: 1 μM staurosporine, 2 h and 4 h (FIG. 5D)
Experimental: (§1) Cleavage of the enzyme poly(ADP)ribose polymerase (PARP) by caspase-3 and related proteases is considered to be one of the molecular hallmarks of caspase-mediated apoptosis. Therefore, the ability of gambogic acid to induce PARP cleavage in four different human tumor cell lines (Jurkat cells, HL-60 cells, T47D cells and PC3 cells) was determined.
(§2) Cells were cultured in complete growth medium containing 10% FBS and treated with gambogic acid at concentrations of 2.5 μM or 5 μM for 2 to 4 h. Control cultures were treated with a drug vehicle (DMSO), or the well-characterized apoptosis inducer, staurosporine. At the end of the apoptosis induction period, the cells were harvested, washed once with PBS, quick-frozen on dry ice, and stored at −80° C. The cells were then lysed in a standard immunoblotting lysis buffer and samples of the lysates were electrophoresed on 4% to 20% gradient polyacrylamide gels. The proteins in the gels were then transferred to PVDF membranes and probed with a commercially-available rabbit polyclonal antibody to PARP.

[2] = tested on: poly(ADP)ribose polymerase (PARP) cleavage, T47D cells; assay: PARP cleavage western blot, T47D cells; type: cell-based, human; conditions: 1 μM staurosporine, 2 h and 4 h (FIG. 5C)
Experimental: as §1, §2

[3] = tested on: caspase cascade, human breast cancer cell line ZR-75-1; assay: Caspase cascade activation assay (Example 90), ZR-75-1; type: cell-based; conditions: ratio of net RFU of test compound to control; 24 h incubation, 0.16 to 10 μM
Experimental: (§3) Human breast cancer cell lines T-47D and ZR-75-1, human prostate cancer cell line PC-3, human leukemia cancer cell line HL-60 and human non-transformed fibroblast cell line MRC-5 cells were grown according to media component mixtures designated by The American Type Culture Collection+10% FCS (Life Technologies, Inc.), in a 5% CO2-95% humidity incubator at 37° C. T-47D, ZR-75-1 and PC-3 cells were maintained at a cell density between 30 and 80% confluency and for HL-60 at a cell density of 0.1 to 0.6×10^6 cells/m. Cells were harvested at 600× g and resuspended at 0.65×10^6 cells/ml into appropriate media +10% FCS. […] The samples were mixed by agitation and incubated at room temperature.
(§4) The EC50 (nM) was determined by a sigmoidal dose-response calculation (Prism 2.0, GraphPad Software Inc.).

[4] = tested on: caspase cascade, human breast cancer cell line T-47D; assay: Caspase cascade activation assay (Example 90), T-47D; type: cell-based; conditions: ratio of net RFU of test compound to control; 24 h incubation, 0.16 to 10 μM
Experimental: as §3, §4

[5] = tested on: caspase cascade, human non-transformed fibroblast cell line MRC-5; assay: Caspase cascade activation assay (Example 90), MRC-5; type: cell-based; conditions: ratio of net RFU of test compound to control; 24 h incubation, 0.16 to 10 μM
Experimental: as §3, §4

[6] = tested on: caspase cascade; assay: as above; type: cell-based, human; conditions: human
Experimental: as §3, §4

[7] = tested on: caspase cascade, human prostate cancer cell line PC-3; assay: Caspase cascade activation assay (Example 90), PC-3; type: cell-based; conditions: for PC-3 Ratio (caspase activity): ratio of net RFU of test compound to control, 24 h incubation, 0.16 to 10 μM
Experimental: as §3, §4

[8] = Inhibition of cell proliferation (GI50) and cell death (LC50), MRC-5; type: cell-based; conditions: human; MRC-5, 48 h; read-out: LC50 (dose for 50% cell death)
Experimental: T47D, ZR-75-1, PC-3, human prostate cancer cell line DU-145, human non-small cell lung cancer cell line A-549, human small cell lung cancer cell line SHP-77, HL-60 and MRC-5 cells were grown and harvested as in Example 90. […] The samples were mixed by agitation and incubated at 37° C. for 2-4 h in a 5% CO2-95% humidity incubator. […] This determines the possible background absorbance of the test compounds. No absorbance for gambogic acid or its analogs or derivatives was found at 490 nm. After the 2-4 h incubation, the samples were read for absorbance as above (ATest).
Baseline for GI50 (dose for 50% inhibition of cell proliferation) and LC50 (dose for 50% cell death) of initial cell numbers was determined by adding an aliquot of 90 μl of cells or 90 μl of media, respectively, to wells of a 96-well microtiter plate containing 10 μl of a 10% DMSO in RPMI-1640 media solution. […] The samples were mixed by agitation and incubated at 37° C. for 2-4 h in a 5% CO2-95% humidity incubator. Absorbance was read as above, (AT=0) defining absorbance for initial cell number used as baseline in GI50 determinations and (Amin) defining absorbance for media alone used as baseline in LC50 determinations.
GI50 (dose for 50% inhibition of cell proliferation)
LC50 (dose for 50% cell death)
50=100×[(ATest−Amin)/(AT=0−Amin)]

[9] = tested on: caspase cascade, human leukemia cancer cell line HL-60; assay: Caspase cascade activation assay (Example 90), HL-60; type: cell-based; conditions: ratio of net RFU of test compound to control; 24 h incubation, 0.16 to 10 μM
Experimental: as §3, §4

Row | Structure (SMILES) | PARP cleavage [1] | PARP cleavage [2] | ZR-75-1 Ratio (caspase activity) [3] | T-47D Ratio (caspase activity) [4] | MRC-5 Ratio (caspase activity) [5] | EC50 at 24 h [6] [nM] | PC-3 Ratio (caspase activity) [7] | CC50 at 48 h [8] [nM] | EC50 at 24 h ([6]; 24 h incubation, sigmoidal dose-response, read-out: MRC-5 EC50 (caspase activation potency)) [nM] | EC50 ([7]; Homo sapiens, 24 h, read-out: PC-3 EC50 (caspase activation potency)) [nM] | HL-60 Ratio (caspase activity) [9]
1 | CN[C@@H]1C[C@H]2O[C@@](C)([C@@H]1OC)n1c3ccccc3c3c4c(c5c6ccccc6n2c5c31)C(=O)NC4 [staurosporine, reference compound] | no cleavage of PARP | no cleavage of PARP |  |  |  |  |  |  |  |  | 
2 | COc1c2c(c(CC=C(C)C)c3c1C(=O)C1=CC4CC5C(C)(C)OC(C/C=C(/C)C(=O)N6CCCCC6)(C4=O)C15O3)OC(C)(CCC=C(C)C)C=C2 (stereo not drawn) [Example 7, 6-Methoxy-gambogyl Piperidine] |  |  | 13.4 | 14.4 | 9.4 | 1200 | 2.3 |  |  |  | 
3 | COC(=O)/C(C)=C\CC12OC(C)(C)C3CC(C=C4C(=O)c5c(O)c6c(c(CC=C(C)C)c5OC431)OC(C)(CCC=C(C)C)C=C6)C2=O (stereo not drawn) [Example 4, Methyl Gambogate] |  |  | 14.9 | 16.8 | 27.8 |  | 3.9 | 500 | 501 | 1330 | 7.7
